“And” between values parts separate entries of the source, which are not always exact repeats. Identical values can stand only once.
Columns and labels:
Assay type in all cases: cell-based
[1] = target: T1, DRD2 S1945.43G (Homo sapiens, UniProt P14416, S194G); assay: Gαi/o-mediated cAMP inhibition (GloSensor), mutant; settings: DRD2 Ser5.43Gly; G-protein assay
T1 construct: expressed in transfected cells; host or cells: HEK293T (ATCC CRL-11268)

[2] = target: T2, 5HT7A (Homo sapiens, UniProt P34969); assay: β-arrestin2 recruitment (Tango); settings: for concentration at which the receptor is activated: 5HT7A, agonist activity only at high concentrations; for β-arrestin2 recruitment response, replicate points of concentration-response curve: Fig_S10q, agonist mode
T2 construct: expressed in transfected cells; host or cells: HTLA cells expressing TEV-fused β-arrestin2

[3] = target: T3, 5HT6 (Homo sapiens, UniProt P50406); assay: β-arrestin2 recruitment (Tango); settings: Fig_S10p, agonist mode
T3 construct: expressed in transfected cells; host or cells: HTLA cells expressing TEV-fused β-arrestin2

[4] = target: 5HT1D (Homo sapiens, UniProt P28221); assay: β-arrestin2 recruitment (Tango); settings: agonist activity only at high concentrations
[5] = target: T4, DRD2 S1975.46G (Homo sapiens, UniProt P14416, S197G); assay: Gαi/o-mediated cAMP inhibition (GloSensor), mutant; settings: DRD2 Ser197^5.46Gly; G-protein assay
T4 construct: expressed in transfected cells; host or cells: HEK293T (ATCC CRL-11268)
T4 sequence (P14416 whole entry S197G): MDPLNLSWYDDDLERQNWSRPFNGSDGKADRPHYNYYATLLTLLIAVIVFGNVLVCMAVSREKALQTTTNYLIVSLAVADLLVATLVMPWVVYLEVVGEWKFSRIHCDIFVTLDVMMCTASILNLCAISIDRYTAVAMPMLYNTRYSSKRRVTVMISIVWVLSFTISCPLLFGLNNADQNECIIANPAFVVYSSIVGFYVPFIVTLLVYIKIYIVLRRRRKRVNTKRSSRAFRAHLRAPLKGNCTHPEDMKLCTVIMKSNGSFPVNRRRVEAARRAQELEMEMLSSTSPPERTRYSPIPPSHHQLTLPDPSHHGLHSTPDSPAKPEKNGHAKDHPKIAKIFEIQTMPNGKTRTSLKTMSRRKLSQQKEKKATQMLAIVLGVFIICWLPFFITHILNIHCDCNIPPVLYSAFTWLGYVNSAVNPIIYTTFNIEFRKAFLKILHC

T3 sequence (P50406 whole entry, the tested form may be a part): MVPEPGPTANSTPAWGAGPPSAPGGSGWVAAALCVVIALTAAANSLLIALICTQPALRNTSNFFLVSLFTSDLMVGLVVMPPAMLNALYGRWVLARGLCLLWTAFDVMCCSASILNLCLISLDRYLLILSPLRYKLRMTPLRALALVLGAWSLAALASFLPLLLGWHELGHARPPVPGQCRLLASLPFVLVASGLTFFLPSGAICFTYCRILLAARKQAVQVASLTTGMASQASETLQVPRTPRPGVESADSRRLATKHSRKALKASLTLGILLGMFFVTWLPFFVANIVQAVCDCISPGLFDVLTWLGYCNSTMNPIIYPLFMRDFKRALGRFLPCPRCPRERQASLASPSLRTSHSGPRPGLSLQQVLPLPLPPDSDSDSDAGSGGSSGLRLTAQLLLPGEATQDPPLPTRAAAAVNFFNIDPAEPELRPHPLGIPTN
T2 sequence (P34969 1-445 isoform P34969-2): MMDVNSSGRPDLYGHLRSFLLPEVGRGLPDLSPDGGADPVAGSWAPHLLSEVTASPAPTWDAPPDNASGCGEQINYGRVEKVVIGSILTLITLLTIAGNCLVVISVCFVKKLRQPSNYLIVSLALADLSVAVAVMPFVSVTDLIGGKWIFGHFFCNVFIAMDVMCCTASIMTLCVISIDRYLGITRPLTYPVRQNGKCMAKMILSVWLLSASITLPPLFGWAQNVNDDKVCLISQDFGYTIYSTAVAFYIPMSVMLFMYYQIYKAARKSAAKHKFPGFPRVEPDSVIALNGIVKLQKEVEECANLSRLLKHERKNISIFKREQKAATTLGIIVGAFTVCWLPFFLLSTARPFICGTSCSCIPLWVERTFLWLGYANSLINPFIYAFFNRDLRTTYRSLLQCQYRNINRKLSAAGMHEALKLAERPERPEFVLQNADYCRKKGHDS
T1 sequence (P14416 whole entry S194G): as the sequence (P14416 whole entry S197G) above, with S194G, G197S counted along it
Sequence of 5HT1D (P28221 whole entry): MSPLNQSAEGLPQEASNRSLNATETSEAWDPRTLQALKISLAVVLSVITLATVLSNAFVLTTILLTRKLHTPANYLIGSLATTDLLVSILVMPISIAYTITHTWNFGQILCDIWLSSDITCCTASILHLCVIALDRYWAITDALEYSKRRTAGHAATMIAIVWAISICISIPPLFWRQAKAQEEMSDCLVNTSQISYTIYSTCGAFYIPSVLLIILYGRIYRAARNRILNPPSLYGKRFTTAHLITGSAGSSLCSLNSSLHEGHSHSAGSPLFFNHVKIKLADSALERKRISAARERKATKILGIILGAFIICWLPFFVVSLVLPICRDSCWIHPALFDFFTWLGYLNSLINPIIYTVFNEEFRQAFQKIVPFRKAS

Row | SMILES | agonism after serine to glycine substitution [1] | concentration at which the receptor is activated [2] | β-arrestin2 recruitment response, replicate points of concentration-response curve ([2]; Log[Drug] -8.52) | β-arrestin2 recruitment response, replicate points of concentration-response curve ([2]; Log[Drug] -9) | β-arrestin2 recruitment response, replicate points of concentration-response curve ([2]; Log[Drug] -9.52) | β-arrestin2 recruitment response, replicate points of concentration-response curve ([2]; Log[Drug] -10) | β-arrestin2 recruitment response, replicate points of concentration-response curve ([2]; Log[Drug] -10.52) | β-arrestin2 recruitment response, replicate points of concentration-response curve ([2]; Log[Drug] -11) | β-arrestin2 recruitment response, replicate points of concentration-response curve ([2]; Log[Drug] -11.52) | β-arrestin2 recruitment response, replicate points of concentration-response curve ([2]; Log[Drug] -12) | β-arrestin2 recruitment response, replicate points of concentration-response curve ([3]; Log[Drug] -6) | β-arrestin2 recruitment response, replicate points of concentration-response curve ([3]; Log[Drug] -6.52) | β-arrestin2 recruitment response, replicate points of concentration-response curve ([3]; Log[Drug] -7) | β-arrestin2 recruitment response, replicate points of concentration-response curve ([3]; Log[Drug] -7.52) | β-arrestin2 recruitment response, replicate points of concentration-response curve ([3]; Log[Drug] -8) | β-arrestin2 recruitment response, replicate points of concentration-response curve ([3]; Log[Drug] -8.52) | β-arrestin2 recruitment response, replicate points of concentration-response curve ([3]; Log[Drug] -9) | β-arrestin2 recruitment response, replicate points of concentration-response curve ([3]; Log[Drug] -9.52) | β-arrestin2 recruitment response, replicate points of concentration-response curve ([3]; Log[Drug] -10) | β-arrestin2 recruitment response, replicate points of concentration-response curve ([3]; Log[Drug] -10.52) | further results
1 | CCOc1cccc2cc([C@@H](C)NCC3(O)CCCCC3)oc12 [O4RE6] | impaired | over 1 μM | -12.5786 and -8.044 and 1.071 and -9.7421 and 32.4405 and 49.1467 and -14.2149 and 16.5223 and -11.2331 and 4.354 and 35.2448 and 10.2419 | 10.8788 and 4.459 and -14.1005 and -17.9842 and -16.1246 and -21.1449 and -7.127 and 62.1289 and 35.3983 and -32.9912 and 26.9263 and -33.8761 | -17.7926 and -13.0806 and -8.59 and 76.7429 and -5.732 and -9.941 and -9.587 and 8.198 and -49.3687 and 45.8761 | 8.776 and -5.649 and -4.779 and -6.75 and 22.3693 and -13.4231 and 66.8562 and 10.9818 and 67.3785 and -0.5782 and 14.0649 and -7.044 | 3.024 and -18.69 and -0.8855 and -5.258 and -47.1876 and -14.9154 and -10.2215 and 7.524 and 59.795 and 14.1475 and 8.932 and -11.705 | 2.617 and -4.127 and -1.973 and 44.555 and 24.1984 and -23.678 and 55.762 and 41.0711 and -15.762 and -13.3333 and -38.2183 and -14.0059 | 10.0328 and 5.163 and -15.1797 and -41.8076 and 36.1292 and 53.417 and 13.0909 and -3.233 and 13.8777 and 47.469 and -14.7611 and -41.4631 | -10.6692 and 6.787 and -7.578 and 7.025 and -23.6244 and 50.44 and -4.476 and 12.3769 and -7.901 and 14.5015 and 35.0914 and -7.516 | 0.6179 | 2.255 and 6.005 and -0.9593 and 0.5245 and -8.852 and -1.095 and 3.803 and 14.7296 and 1.5314 | 2.737 and -0.8021 and 0.3035 and -9.828 and -11.4107 and -3.313 and -1.206 and -3.514 and 45.5574 | 9.506 and 14.1402 and 17.6522 and -10.6377 and -5.208 and -2.549 and -1.295 and 2.071 and -1.605 | -0.645 and 1.165 and 0.2927 and -3.147 and 13.2695 and -12.1837 and -4.853 and 0.614 and -2.656 | -0.1626 and 4.9103 and -0.3035 and -9.285 and -10.3985 and -13.5456 and -5.689 and -5.904 and -4.713 | 5.962 and 3.36 and 0.775 and -2.264 and 6.672 and -11.4475 and -4.468 and 0.05179 and -2.649 | 0.7804 and -0.09756 and 1.653 and -9.57 and -13.2511 and -10.2512 and -0.9174 and -5.319 and -2.049 | -1.848 and 4.038 and 4.894 and -4.813 and -13.9689 and -2.9539 and 13.3388 and -5.371 and 2.353 | 1.577 and 1.859 and -0.3143 and -10.7113 and -10.242 and -8.8801 and -0.04439 and -4.439 and 2.981 | β-arrestin2 recruitment response, replicate points of concentration-response curve ([3]; Log[Drug] -11): -1.149 and 2.054 and 0.1355 and -7.003 and -10.3432 and 9.598 and -3.27 and -3.4993 and -5.608; β-arrestin2 recruitment response, replicate points of concentration-response curve ([3]; Log[Drug] -11.52): -1.182 and 12.7148 and 3.068 and 1.2699 and -8.8985 and -8.135 and 6.251 and -5.941 and -5.608; concentration at which the receptor is activated [4]: over 1 μM; agonism after serine to glycine substitution [5]: impaired
2 | CCOc1cccc2cc([C@H](C)NCC3(O)CCCCC3)oc12 [O4SE6] | impaired | over 1 μM | -17.0653 and -8.2658 and 45.2148 and -20.2418 and -21.803 and -0.7194 and -2.896 and -5.6 and 11.1273 and 4.271 and -5.097 and 41.8171 | -5.443 and 2.933 and -8.226 and -2.556 and -7.477 and 46.4452 and 15.6099 and 24.9983 and 34.962 and -18.0177 and 28.5192 and 18.5487 | -12.1477 and -17.9982 and -14.9702 and 11.6094 and 28.1779 and -35.8001 and 6.565 and -15.7686 and -5.626 and -8.555 and 44.6962 and -16.9086 | 8.096 and 0.4862 and 3.854 and 5.12 and -39.6418 and 11.9538 and 0.1785 and 14.2612 and 32.5752 and 35.9646 and 2.796 and -2.0885 | -7.874 and -13.6459 and -8.622 and -2.931 and 11.0507 and -27.4126 and -0.1587 and -15.0413 and -19.8744 and -43.7994 and 23.1032 and 11.941 | -18.3698 and 12.5825 and -5.609 and -19.6985 and -4.821 and 50.3406 and -7.299 and -5.302 and 7.068 and 22.7847 and 5.345 and 29.9587 | -11.7405 and -3.06 and 5.3959 and -7.492 and 32.3027 and 44.3713 and -10.4331 and 15.1471 and 38.5521 and -11.882 and -21.4277 and -18.6431 | -10.8669 and -8.214 and -4.091 and -12.7879 and 18.5659 and 87.5029 and 6.479 and 24.6612 and 1.765 and 32.6018 and 45.9115 and -9.546 | -0.3035 | 1.0135 and 1.198 and 5.246 and -9.543 and -10.288 and -8.77 and 1.1615 and -3.588 and -1.1467 | 1.87 and 1.848 and 8.574 and -11.7696 and -2.512 and -8.797 and 0.1776 and -4.113 and -5.009 | 1.593 and -0.504 and 0.09756 and -12.1009 (2×) and -11.7328 and 60.6717 and -4.6608 and -1.753 | 1.669 and -1.382 and -0.2872 and -13.1683 and -12.0825 and -9.524 and -3.196 and -2.353 and 1.768 | 0.775 and 4.666 and 0.9864 and -12.4781 and -7.656 and -12.1009 and 0.3255 and -3.854 and 3.566 | 2.499 and 9.663 and 0.775 and -0.2945 and -9.561 and -9.543 and -2.049 and -4.424 and -4.173 | -0.09214 and 0.5474 and -0.9647 and -12.1929 and -11.3831 and -2.5214 and -5.0455 and -0.3107 and 5.623 | 3.149 and 2.721 and -0.1138 and 8.135 and -9.598 and -12.4689 and 1.768 and 2.893 and -2.7151 | 2.504 and 5.311 and 0.7425 and -10.7297 and -3.616 and -12.1193 and -4.52 and 13.3166 and 0.2515 | β-arrestin2 recruitment response, replicate points of concentration-response curve ([3]; Log[Drug] -11): 0.5474 and 6.401 and -0.2981 and -6.662 and -9.929 and -5.0796 and -2.915 and -3.588 and -2.353; β-arrestin2 recruitment response, replicate points of concentration-response curve ([3]; Log[Drug] -11.52): 1.409 and 4.46 and -0.7262 and -4.371 and -12.837 and -12.1009 and -3.803 and -3.24 and -3.847; concentration at which the receptor is activated [4]: over 1 μM; agonism after serine to glycine substitution [5]: impaired

From paper PMC7044277 (Nature Communications, 2020)
